# Results taken from US10105351B2, “Neurofibromatoses therapeutic agents and screening for same” (University of Central Florida Research Foundation, Inc., priority 2012, dated 2018).
# Counter-ions that a name gives are not always drawn. Like-named read-outs stand apart in the source and are kept apart here.
# Tests used:
# [1] = tested on: merlin-null Schwann cells; assay: Violet Ratiometric Membrane Asymmetry Probe/Dead Cell Apoptosis assay (flow cytometer); assay type: cell-based, mouse; conditions: 10 uM, 24 hours, 6-well format
# Method: (§1) FIGS. 8A-C. Phenotypic Apoptosis Assays. (A). Merlin-null Schwann cells in a 384-well format were incubated with the indicated compounds for 8 hours. Caspase-3/7 activity was measure with Apo-ONE Homogeneous Assay (Promega). n=32 wells. (B). Merlin-null Schwann cells in a 6-well format were treated with compounds (10 uM) for 24 hours. Membrane asymmetry was detected with Violet Ratiometric assay and read on a BD Cantos II flow cytometer. (C). Population distribution for B is shown.
# (§2) In yet another aspect, compounds may be identified which induce programmed cell death or inhibit proliferation of Merlin-null Schwann cells. Merlin-pathway assays may be conducted to identify the subset of compounds that modulate the activity of known merlin pathways. The effector caspase cascade is activated in many extrinsic and intrinsic cell death pathways^29. […] The effect of compounds on caspase-3 activity can be measured by first lysing the cells and centrifuging to pellet the debris. […] Enzyme activity may be measured on an Envision plate reader at Ex400 nm/Em505 nm. The enzyme activity may be calculated from a standard curve generated using recombinant caspase-3 enzyme (R&D System, Inc.) and expressed as fold-increase in activity. […] Transfer of phosphatidylserine and phosphatidylethanolamine from the inner to the outer leaflet of the plasma membrane changes the membrane potential that is detected by F2N12S. […]
# [2] = tested on: merlin-null Schwann cells; assay: Primary assay: live cell protease assay (CellTiter-Fluor), cell viability; conditions: for Primary Assay (m +/− sd), cell viability: mean and SD of four assays
# Method: (§3) Cell viability was measured with the CellTiter-Fluor Live Protease Assay (Promega). […] One way ANOVA Kurskal-Wallis test was used with a Dunn's Multiple Comparison post-test.
# (§4) The compounds were tested at 10 uM in 8 replicates in a 384-well format using the live cell protease assay (CellTiter-Fluor) and the orthogonal ATP-based assay (CellTiter-GLO) (both from Promega). We tested the compounds on two Merlin-null Schwann cell lines, L1, (used in the LOPAC screen) at passages ranging from 13-23 and an independently-derived line, L2, tested at passage 20 and 21.
# [3] = tested on: normal nf2^flox2/flox2 Schwann cells; conditions: 10 µM
# Method: as §4
# [4] = tested on: merlin-null Schwann cells; assay: Orthogonal ATP-based luminescence cell viability assay (CellTiter-GLO); conditions: for Orthogonal Assay Average of two, cell viability: average of two assays with one cell line at P18-23
# [5] = tested on: merlin-null Schwann cells; assay: MultiTox-Fluor Multiplex Cytotoxicity Assay (assay validation and LOPAC pilot screen); assay type: cell-based, mouse; conditions: 50 μM; 384-well plate, 5,000 cells/well
# Method: Merlin-null Schwann cells were seeded at 5,000 cells/well in an uncoated Corning Cell-Bind 384-well plate. A) Result of a rapamycin dose response study conducted with the MultiTox-Fluor assay is shown. B) Cell viability in the presence of 0.5% DMSO or 0.5% DMSO plus 50 μM rapamycin (RM) added 4 hours after plating was measured 24 hours later as described in the FIG. 3 legend.
# A pilot screen of Sigma's LOPAC was conducted to test the reliability of our system. The 1280 compounds were tested at 10 μM in 0.5% DMSO in single wells. They were added 4 hours after cell plating and the MultiTox-Fluor assay was run 24 hours later. The positive control included cells treated with 50 μM rapamycin in 0.5% DMSO and the negative control included cells treated with 0.5% DMSO. The signals for live and dead protease activities were collected sequentially. […] The screen yielded 40 hits using a cut-off value equal to 80% of the live:dead signal of the rapamycin positive control which was equivalent to 50% of live cell signal (FIG. 5). The hits represent a spectrum of compounds that fall into 5 basic categories; 1) inhibitors of signaling kinases, 2) cell-cycle inhibitors, 3) pro-apoptotic agents, 4) receptor inhibitors and 5) modulators of cell metabolism.
# [6] = tested on: normal nf2^flox2/flox2 Schwann cells; assay: Selectivity assay: cell viability of normal Schwann cells; conditions: one assay with mouse nf2^flox2/flox2 Schwann cells at P2
# Method: as §4
# [7] = tested on: merlin-null Schwann cells; conditions: 10 µM
# Method: as §3, §4
# [8] = tested on: merlin-null Schwann cells; assay: Propidium iodide and BrdU/7AAD flow cytometer cell cycle assays; assay type: cell-based, mouse
# Method: FIGS. 9A-D. Phenotypic Proliferation Assays. (A) Merlin-null Schwann cells (384-well format) were treated with the indicated compounds and concentrations for 24 hours and labeled with EdU during the last 9 hours. Incorporation of EdU into S-phase cells was read on a Biotek H1 Hybrid reader. (B) The plate was also imaged with a Trophos high resolution fluorescence Plate Runner. (C). Merlin-null Schwann cells were grown in 6-well format and were treated with 5 uM compounds for 22 hours, then labeled with PI. The cell population profile is shown and was analyzed using the ModFit program. (D). Merlin-null Schwann cells were grown as in C but were labeled with BrdU during the final 3 hours of treatment then stained with 7AAD. The distribution of BrdU- and 7AAD-labelled cells is shown and was analyzed with Diva program. The BD Cantos II flow cytometer was used above.
# In yet another aspect, identification of compounds that affect proliferation of Merlin-null mouse Schwann cells can be performed by conducting a Click-iT EdU Microplate Assay (Life Technologies) in the 384 well-plate format and then follow-up with BrdU/7AAD and propidium iodide flow cytometer assays. […] Fluorescence emission is measured on a Hybrid HT plate reader (FIG. 9A) as well as on a Trophos Plate RUNNER HD that captures images of the wells (FIG. 9B). […]
# [9] = tested on: merlin-null Schwann cells; conditions: 10 µM; remark: listed apart in the source
# [10] = tested on: merlin-null Schwann cells; assay: Apo-ONE Homogeneous caspase-3/7 assay; assay type: cell-based, mouse; conditions: 8 hours, 384-well format
# Method: as §1, §2
# [11] = 10 uM, 8 replicates, 384 well plate, two independently derived merlin-null Schwann cell lines at P13-23
compound,measurement,setting,value
chelerythrine chloride,apoptotic death (Q1+Q3) of cells,[1],93%
"Ic1ccccc1CNC1C2CCN(CC2)C1C(c1ccccc1)c1ccccc1 [L-703,606 oxalate salt hydrate, cis-2-(Diphenylmethyl)-N-[(2-iodophenyl)methyl]-1-azabicyclo[2.2.2]octan-3-amine]","Primary Assay (m +/− sd), cell viability",[2]; [11],62 +/− 11 % of DMSO Control
same,"Selectivity Assay, cell viability",[3],33 % of DMSO Control
same,"Orthogonal Assay Average of two, cell viability",[4]; 10 uM,40.6 % of DMSO Control
"CO[C@H]1C[C@@H]2CC[C@@H](C)[C@@](O)(O2)C(=O)C(=O)N2CCCC[C@H]2C(=O)O[C@H]([C@H](C)C[C@@H]2CC[C@@H](O)[C@H](OC)C2)CC(=O)[C@H](C)/C=C(\C)[C@@H](O)[C@@H](OC)C(=O)[C@H](C)C[C@H](C)/C=C/C=C/C=C/1C [Rapamycin, rapamycin]","Primary Assay (m +/− sd), cell viability","[2]; 50 uM, two merlin-null Schwann cell lines at P13-23",18 +/− 3 % of DMSO Control
same,Viability of cells (live cell protease),[5],20+/−1.4 % of the DMSO control
same,"Selectivity Assay, cell viability",[6]; 50 uM,30 % of DMSO Control
same,"Orthogonal Assay Average of two, cell viability",[4]; 50 uM,10.6 % of DMSO Control
CC(C)C(=O)Nc1ncc(-c2cc(C(F)F)nn2-c2c(Cl)cccc2Cl)s1 [BMS-5],"Primary Assay (m +/− sd), cell viability",[7],65 +/− 14 % of DMSO Control
same,PI labeling and BrdU cell cycle profiles,"[8]; 5 uM, 22 hours",accumulate in G2/M
same,"Orthogonal Assay Average of two, cell viability",[9],63.2 % of DMSO Control
same,mechanism of apoptotic death with respect to caspase-3/7 activity,[10],caspase3/7-independent
"N#C/C(=C\c1ccc(-c2cc(Cl)ccc2Cl)o1)C(=O)Nc1cccc2ncccc12 [AGK2, 2-Cyano-3-[5-(2,5-dichlorophenyl)-2-furanyl]-N-5-quinolinyl-2-propenamide]",cell viability,"[2]; 10 uM, 24 hours, lines L1, L2 at P12-18, CellTiter-Fluor",< 50 % of DMSO control
same,"Primary Assay (m +/− sd), cell viability",[2]; [11],65 +/− 14 % of DMSO Control
same,anti-proliferative effects on the cells,[8]; 24 hours of drug treatment and S-phase labelling for the final 3 hours,did not reveal clear anti-proliferative effects
same,"Selectivity Assay, cell viability",[6]; 10 uM,42 % of DMSO Control
same,mechanism of apoptotic death with respect to caspase-3/7 activity,[10],caspase3/7-independent
same,"Orthogonal Assay Average of two, cell viability",[4]; 10 uM,78.6 % of DMSO Control
same,activity on viability in orthogonal screen and dose response,[4]; Merlin-null Schwann cells L1P12,confirmed
